Data from patent US11596639B2, “Substituted indole Mcl-1 inhibitors” (Vanderbilt University, priority 2016, dated 2023).

Experiments:
Mcl-1 = Mcl-1 (Homo sapiens (Human), UniProt Q07820); experiment: Fluorescence polarization anisotropy (FPA) competition assay, FITC-Bak or FITC-Bim BH3 peptide; assay type: binding; conditions: read-out: Ki for Inhibition of Mcl-1 by FPA assay
[1] = tested on: H929 human cancer cell lines; experiment: Cellular viability / proliferation (Cell TiterGlo, 72 h); assay type: cell-based; conditions: Homo sapiens, NCI-H929, 72 h, read-out: GI50 on cellular proliferation of H929 human cancer cell lines, H929 cells, 72 h, Cell TiterGlo, 10% FBS
Protocol: Cellular Viability of Human Tumor Cell Lines
To evaluate compound effect on cellular proliferation, cells were plated at 1,000 cells/well in 96-well tissue culture plates in a total volume of 90 μL medium supplemented with 10% FBS (Sigma, Saint Louis, Mo.). 24 hours later, 10 μL of compound (in a 2-fold serial dilution) is added to the cells for a top concentration of 50 μM and a final DMSO concentration <1%. After 72 hours, 50 μL of Cell TiterGlo (Promega, Madison, Wis., USA) reagent is added to each well and plates are incubated at room temperature, in the dark, for 30 minutes. Luminescence is measured on a BioTek Cytation 3. Luminescence values are imported into a template in XLFit (Guildford, Surrey, UK) that uses a four-parameter fit to generate an IC50 value for each compound dilution series on the plate.

Mcl-1, sequence (Q07820 172-327): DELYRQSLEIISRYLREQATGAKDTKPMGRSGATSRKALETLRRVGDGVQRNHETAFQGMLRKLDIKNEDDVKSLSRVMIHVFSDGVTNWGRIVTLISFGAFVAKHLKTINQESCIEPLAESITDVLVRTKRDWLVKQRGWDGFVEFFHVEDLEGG

SMILES | Ki (Mcl-1) [nM] | GI50 [1] [nM]
Cc1cc(OCCCc2c3n(c4c(-c5c(C)nn(C)c5C)c(Cl)ccc24)[C@H](C)CN(c2cn(C)c4cc(S(C)(=O)=O)ccc24)C3=O)cc(C)c1Cl [Example 222, (R)-7-chloro-10-(3-(4-chloro-3,5-dimethylphenoxy)propyl)-4-methyl-2-(1-methyl-6-(methylsulfonyl)-1H-indol-3-yl)-6-(1,3,5-trimethyl-1H-pyrazol-4-yl)-3,4-dihydropyrazino[1,2-a]indol-1(2H)-one] | 6.9 | 3000
Cc1cc(OCCCc2c3n(c4c(-c5c(C)nn(C)c5C)c(Cl)ccc24)[C@H](C)CN(c2cccc4cc(C(=O)O)n(Cc5nccs5)c24)C3=O)cc(C)c1Cl [Example 298, 7-[(4R)-7-chloro-10-[3-(4-chloro-3,5-dimethyl-phenoxy)propyl]-4-methyl-1-oxo-6-(1,3,5-trimethylpyrazol-4-yl)-3,4-dihydropyrazino[1,2-a]indol-2-yl]-1-(thiazol-2-ylmethyl)indole-2-carboxylic acid] | < 1 | 290
Cc1cc(OCCCc2c3n(c4c(-c5c(C)ncnc5C)c(Cl)ccc24)CCCN(c2cc(C(=O)O)c4ccn(C)c4c2)C3=O)cc(C)c1Cl [Example 130, 6-[8-Chloro-11-[3-(4-chloro-3,5-dimethyl-phenoxy)propyl]-7-(4,6-dimethylpyrimidin-5-yl)-1-oxo-4,5-dihydro-3H-[1,4]diazepino[1,2-a]indol-2-yl]-1-methyl-indole-4-carboxylic acid] | < 1 | 2400
Cc1cc(OCCCc2c3n(c4c(-c5c(C)nn(C)c5C)c(Cl)ccc24)[C@H](C)CN(c2ccc4cnoc4c2)C3=O)cc(C)c1Cl [Example 115, (R)-2-(benzo[d]isoxazol-6-yl)-7-chloro-10-(3-(4-chloro-3,5-dimethylphenoxy)propyl)-4-methyl-6-(1,3,5-trimethyl-1H-pyrazol-4-yl)-3,4-dihydropyrazino[1,2-a]indol-1(2H)-one] | 3.1 | 5100
Cc1cc(OCCCc2c3n(c4c(-c5c(C)nn(C)c5C)c(Cl)ccc24)[C@H](C)CN(c2cccc4cc(-c5nnco5)n(C)c24)C3=O)cc(C)c1Cl [Example 341, (R)-7-Chloro-10-(3-(4-chloro-3,5-dimethylphenoxy)propyl)-4-methyl-2-(1-methyl-2-(1,3,4-oxadiazol-2-yl)-1H-indol-7-yl)-6-(1,3,5-trimethyl-1H-pyrazol-4-yl)-3,4-dihydropyrazino[1,2-a]indol-1(2H)-one] | 4.2 | 920
Cc1cc(OCCCc2c3n(c4c(-c5c(C)nn(C)c5C)c(Cl)ccc24)[C@H](C)CN(c2cccc4c2cc(C(=O)O)n4Cc2ccccn2)C3=O)cc(C)c1Cl [Example 352, (R)-4-(7-chloro-10-(3-(4-chloro-3,5-dimethylphenoxy)propyl)-4-methyl-1-oxo-6-(1,3,5-trimethyl-1H-pyrazol-4-yl)-3,4-dihydropyrazino[1,2-a]indol-2(1H)-yl)-1-(pyridin-2-ylmethyl)-1H-indole-2-carboxylic acid] | 2.8 | 5100
Cc1cc(OCCCc2c3n(c4c(-c5c(C)nn(C)c5C)c(Cl)ccc24)[C@H](C)CN(c2cccc4cc(C(=O)O)n(CCN(C)C)c24)C3=O)cc(C)c1Cl [Example 322, (R)-7-(7-Chloro-10-(3-(4-chloro-3,5-dimethylphenoxy)propyl)-4-methyl-1-oxo-6-(1,3,5-trimethyl-1H-pyrazol-4-yl)-3,4-dihydropyrazino[1,2-a]indol-2(1H)-yl)-1-(2-(dimethylamino)ethyl)-1H-indole-2-carboxylic acid] | 1.7 | 1800
Cc1cc(OCCCc2c3n(c4c(-c5c(C)nn(C)c5C)c(Cl)ccc24)[C@H](C)CN(c2cn(C)c4c(-c5nnn(C)n5)cccc24)C3=O)cc(C)c1Cl [Example 362, (R)-7-Chloro-10-(3-(4-chloro-3,5-dimethylphenoxy)propyl)-4-methyl-2-(1-methyl-7-(2-methyl-2H-tetrazol-5-yl)-1H-indol-3-yl)-6-(1,3,5-trimethyl-1H-pyrazol-4-yl)-3,4-dihydropyrazino[1,2-a]indol-1(2H)-one] | 1.7 | 970
CC[C@@H]1Cn2c(c(CCCOc3cc(C)c(Cl)c(C)c3)c3ccc(Cl)c(-c4c(C)nn(C)c4C)c32)C(=O)N1c1ccc(C(=O)O)c2ncccc12 [Example 19, (R)-5-(7-chloro-10-(3-(4-chloro-3,5-dimethylphenoxy)propyl)-3-ethyl-1-oxo-6-(1,3,5-trimethyl-1H-pyrazol-4-yl)-3,4-dihydropyrazino[1,2-a]indol-2(1H)-yl)quinoline-8-carboxylic acid] | 1.9 | 4100
COc1ccnc(-c2ccc3c(c2)c(N2C[C@@H](C)n4c(c(CCCOc5cc(C)c(Cl)c(C)c5)c5ccc(Cl)c(-c6c(C)nn(C)c6C)c54)C2=O)cn3C)n1 [Example 464, (R)-7-Chloro-10-(3-(4-chloro-3,5-dimethylphenoxy)propyl)-2-(5-(4-methoxypyrimidin-2-yl)-1-methyl-1H-indol-3-yl)-4-methyl-6-(1,3,5-trimethyl-1H-pyrazol-4-yl)-3,4-dihydropyrazino[1,2-a]indol-1(2H)-one] | 3.5 | 480
Cc1cc(OCCCc2c3n(c4c(-c5c(C)nn(C)c5C)c(Cl)ccc24)[C@H](C)CN(c2cn(C)c4cc(C(=O)O)ccc24)C3=O)cc(C)c1Cl [Example 88, (R)-3-(7-Chloro-10-(3-(4-chloro-3,5-dimethylphenoxy)propyl)-4-methyl-1-oxo-6-(1,3,5-trimethyl-1H-pyrazol-4-yl)-3,4-dihydropyrazino[1,2-a]indol-2(1H)-yl)-1-methyl-1H-indole-6-carboxylic acid] | < 1 | 290
Cc1cc(OCCCc2c3n(c4c(-c5c(C)nn(C)c5C)c(Cl)ccc24)CCCN(c2cc(C(=O)O)cc4c2N(C)CCO4)C3=O)cc(C)c1Cl [Example 61, 5-[8-chloro-11-[3-(4-chloro-3,5-dimethyl-phenoxy)propyl]-1-oxo-7-(1,3,5-trimethylpyrazol-4-yl)-4,5-dihydro-3H-[1,4]diazepino[1,2-a]indol-2-yl]-4-methyl-2,3-dihydro-1,4-benzoxazine-7-carboxylic acid] | 5.7 | 8200
Cc1cc(OCCCc2c3n(c4c(-c5c(C)cccc5C)c(Cl)ccc24)CCCNC3=O)cc(C)c1Cl [Example 86, 8-Chloro-11-(3-(4-chloro-3,5-dimethylphenoxy)propyl)-7-(2,6-dimethylphenyl)-2,3,4,5-tetrahydro-1H-[1,4]diazepino[1,2-a]indol-1-one] | 47 | 
Cc1cc(CCCCc2c(C(=O)N3CCN(c4cncc(C(=O)O)c4)CC3)[nH]c3c(-c4c(C)nn(C)c4C)c(Cl)ccc23)cc(C)c1Cl [Example 740, 5-(4-(6-Chloro-3-(4-(4-chloro-3,5-dimethylphenyl)butyl)-7-(1,3,5-trimethyl-1H-pyrazol-4-yl)-1H-indole-2-carbonyl)piperazin-1-yl)nicotinic acid] | 85 | 
Cc1cc(OCCCc2c3n(c4c(-c5c(C)nn(C)c5C)c(Cl)ccc24)[C@H](C)CN(c2cn(C)c4ccc(C(F)(F)F)cc24)C3=O)cc(C)c1Cl (single isomer, unassigned) [Example 193] | 3.9 | 
Cc1cc(OCCCc2c3n(c4c(-c5c(C)nn(C)c5C)c(Cl)ccc24)[C@H](C)CN(c2ccc4c(C(=O)O)nn(C)c4c2)C3=O)cc(C)c1Cl [Example 121, (R)-6-(7-Chloro-10-(3-(4-chloro-3,5-dimethylphenoxy)propyl)-4-methyl-1-oxo-6-(1,3,5-trimethyl-1H-pyrazol-4-yl)-3,4-dihydropyrazino[1,2-a]indol-2(1H)-yl)-1-methyl-1H-indazole-3-carboxylic acid] | 1.9 | 
Cc1cc(OCCCc2c3n(c4c(-c5c(C)nn(C)c5C)c(Cl)ccc24)CCCN(c2cc(C(=O)O)c4cn(CCN(C)C)nc4c2)C3=O)cc(C)c1Cl [Example 42, 6-[8-chloro-11-[3-(4-chloro-3,5-dimethyl-phenoxy)propyl]-1-oxo-7-(1,3,5-trimethylpyrazol-4-yl)-4,5-dihydro-3H-[1,4]diazepino[1,2-a]indol-2-yl]-2-[2-(dimethylamino)ethyl]indazole-4-carboxylic acid] | 8 | 
COc1ccc(N2C[C@@H](C)n3c(c(CCCOc4cc(C)c(Cl)c(C)c4)c4ccc(Cl)c(-c5c(C)nn(C)c5C)c43)C2=O)c2c1c(C)c(C(N)=O)n2C [Example 411, (R)-7-(7-Chloro-10-(3-(4-chloro-3,5-dimethylphenoxy)propyl)-4-methyl-1-oxo-6-(1,3,5-trimethyl-1H-pyrazol-4-yl)-3,4-dihydropyrazino[1,2-a]indol-2(1H)-yl)-4-methoxy-1,3-dimethyl-1H-indole-2-carboxamide] | 5.6 | 
COc1ccc(N2C[C@@H](C)n3c(c(CCCOc4cc(C)c(Cl)c(C)c4)c4ccc(Cl)c(-c5c(C)nn(C)c5C)c43)C2=O)c2c1c(C)c(C(=O)O)n2C [Example 351, (R)-7-(7-Chloro-10-(3-(4-chloro-3,5-dimethylphenoxy)propyl)-4-methyl-1-oxo-6-(1,3,5-trimethyl-1H-pyrazol-4-yl)-3,4-dihydropyrazino[1,2-a]indol-2(1H)-yl)-4-methoxy-1,3-dimethyl-1H-indole-2-carboxylic acid] | < 1 | 
Cc1cc(OCCCc2c(C(=O)N3CCN(c4cccc(C(=O)O)c4)CC3)[nH]c3c(-c4c(C)nn(C)c4C)c(Cl)ccc23)cc(C)c1Cl [Example 732, 3-(4-(6-chloro-3-(3-(4-chloro-3,5-dimethylphenoxy)propyl)-7-(1,3,5-trimethyl-1H-pyrazol-4-yl)-1H-indole-2-carbonyl)piperazin-1-yl)benzoic acid] | 38 | 
